Reference: patent publication US20180065917A1, “IMMUNE CHECKPOINT INHIBITORS, COMPOSITIONS AND METHODS THEREOF” (Polaris Pharmaceuticals, Inc., priority 2016, published 2018)
Counter-ions that a name gives are not always drawn.

| Compound | melting point [°C] |
| --- | --- |
| Cc1c(COc2ccc(CNC(C)(C)C(=O)O)cc2Br)cccc1-c1cccc(COc2ccc(CNC(C)(C)C(=O)O)cc2Br)c1C (as salt: trifluoroacetic acid salt) [Example 14, 2,2′-((((((2,2′-Dimethyl-[1,1′-biphenyl]-3,3′-diyl)bis(methylene))bis(oxy))bis(3-bromo-4,1-phenylene))bis(methylene))bis(azanediyl))bis(2-methylpropanoic acid) di-trifluoroacetic acid salt] | 230 to 234 |
| CCc1cc(CN2CCCC[C@H]2C(=O)O)ccc1OCc1cccc(-c2cccc(COc3ccc(CN4CCCC[C@H]4C(=O)O)cc3CC)c2C)c1C (as salt: trifluoroacetic acid salt) [Example 27, (2S,2′S)-1,1′-(((((2,2′-Dimethyl-[1,1′-biphenyl]-3,3′-diyl)bis(methylene))bis(oxy))bis(3-ethyl-4,1-phenylene))bis(methylene))bis(piperidine-2-carboxylic acid) di-trifluoroacetic acid salt] | 131 to 135 |
| Cc1c(COc2ccc(CNCCO)cc2Br)cccc1-c1cccc(COc2ccc(CNCCO)cc2Br)c1C (as salt: trifluoroacetic acid salt) [Example 5, 2,2′-((((((2,2′-Dimethyl-[1,1′-biphenyl]-3,3′-diyl)bis(methylene))bis(oxy))bis(3-bromo-4,1-phenylene))bis(methylene))bis(azanediyl))bis(ethan-1-ol) di-trifluoroacetic acid salt] | 136 to 140 |
| Cc1c(COc2ccc(CN[C@H](CO)C(=O)O)cc2Br)cccc1-c1cccc(COc2ccc(CN[C@H](CO)C(=O)O)cc2Br)c1C (as salt: trifluoroacetic acid salt) [Example 17, (2R,2′R)-2,2′-((((((2,2′-Dimethyl-[1,1′-biphenyl]-3,3′-diyl)bis(methylene))bis(oxy))bis(3-bromo-4,1-phenylene))bis(methylene))bis(azanediyl))bis(3-hydroxypropanoic acid) di-trifluoroacetic acid salt] | 156 to 160 |
| Cc1c(COc2ccc(CNC(CO)CO)cc2Br)cccc1-c1cccc(COc2ccc(CNC(CO)CO)cc2Br)c1C (as salt: trifluoroacetic acid salt) [Example 32, 2,2′-((((((2,2′-Dimethyl-[1,1′-biphenyl]-3,3′-diyl)bis(methylene))bis(oxy))bis(3-bromo-4,1-phenylene))bis(methylene))bis(azanediyl))bis(propane-1,3-diol) di-trifluoroacetic acid salt] | 148 to 152 |
| Cc1c(COc2ccc(CNC(C)(CO)CO)cc2Br)cccc1-c1cccc(COc2ccc(CNC(C)(CO)CO)cc2Br)c1C (as salt: trifluoroacetic acid salt) [Example 33, 2,2′-((((((2,2′-Dimethyl-[1,1′-biphenyl]-3,3′-diyl)bis(methylene))bis(oxy))bis(3-bromo-4,1-phenylene))bis(methylene))bis(azanediyl))bis(2-methylpropane-1,3-diol) di-trifluoroacetic acid salt] | 134 to 138 |
| Cc1c(COc2ccc(CN3CCCC[C@H]3C(=O)O)cc2C#N)cccc1-c1cccc(COc2ccc(CN3CCCC[C@H]3C(=O)O)cc2C#N)c1C (as salt: trifluoroacetic acid salt) [Example 34, (2S,2′S)-1,1′-(((((2,2′-dimethyl-[1,1′-biphenyl]-3,3′-diyl)bis(methylene))bis(oxy))bis(3-cyano-4,1-phenylene))bis(methylene))bis(piperidine-2-carboxylic acid) di-trifluoroacetic acid salt] | 196 to 200 |
